# Reference: publication PMC11312813, “An Optimized Peptide Antagonist of CXCR4 Limits Survival of BCR–ABL1-Transformed Cells in Philadelphia-Chromosome-Positive B-Cell Acute Lymphoblastic Leukemia” (International Journal of Molecular Sciences, 2024)
# Counter-ions that a name gives are not always drawn.
# Key:
# [1] = system: BCR–ABL1-transformed mouse B cells; test: Cell proliferation assay (cell trace dye dilution); assay type: cell-based; details: 10 µM, 48 and 72 h; n = 3
# Protocol: BCR–ABL1 cells were collected at 0.5 × 10^5 cells/well of a 96-well plate and labeled with cell trace far red cell proliferation dye (#C34564, Invitrogen, Dreieich, Germany), according to the manufacturer’s instructions. Labeled cells were plated in 100 μL of complete media and were mixed with equal volume of 2X DMSO or inhibitor-containing media. A small part of the labeled cells was measured in FACS to determine the fluorescence signal on day 0. After specific time periods (48 and 72 h), cells were collected, washed with FACS buffer, and analyzed using LSR-Fortessa (BD Bioscience).
# [2] = system: CXCR4; test: Anti-CXCR4 antibody (clone L276F12) competition assay in BCR–ABL1-transformed mouse B cells; assay type: binding; details: 2 h at 4 °C, FACS, n = 3; for Anti-CXCR4 antibody binding to CXCR4: serially diluted 10 µM to 1 nM
# Protocol: An anti-CXCR4 competition assay was conducted as previously described. […] Afterward, the cells were washed to remove unbound inhibitors and antibody, and measured via FACS for the fluorescence signal of the bound antibody. The fluorescence signal corresponding to only antibody (no inhibitor) was considered to be 100% antibody binding.
# [3] = system: WT mouse BM-derived B cells; test: Real-time cell growth, normal WT mouse BM-derived B cells; assay type: cell-based; details: 10 µM JM#170, 10 µM AMD3100, 1 µM Imatinib; 96 h; n = 2
# Protocol: (§1) The cells were plated in 100 μL complete medium.
# [4] = system: ERK1/2 phosphorylation downstream of CXCR4; test: Western blot, ERK1/2 T202/Y204 phosphorylation in BCR–ABL1 cells; assay type: cell-based; details: 10 µM, 100 ng/mL mouse CXCL12, 5 min; n = 3
# Protocol: BCR–ABL1 cells were collected as 5 × 10^6 cells/500 μL complete media and treated either with DMSO or different inhibitors in the absence and presence of 100 ng/mL mouse CXCL12 for 5, 15, and 30 min at 37 °C. Cells were then immediately transferred onto ice to stop the reaction and washed with ice-cold PBS. Cell extract was prepared by resuspending the cell pellet in 100 μL of radio-immunoprecipitation assay (RIPA) buffer supplemented with 1X protease inhibitor cocktail (#78429, Thermo Fisher), 1 mM sodium orthovanadate (Sigma-Aldrich), and 10 mM beta-glycerophosphate (Sigma-Aldrich). For each treatment, 15 μL of cell extract was mixed with 5 μL of 4X Laemmli buffer (reducing), boiled at 95 °C for 10 min, and run on 10% SDS-PAGE. Gels were wet-transferred to PVDF membranes (Millipore, Burlington, MA, USA) and stained with 0.1% ponceau-S solution to check for efficient blotting. The membranes were blocked with 3% BSA solution and incubated with primary antibodies at 4 °C overnight. The next day, primary antibodies were washed, and membranes were probed with horseradish peroxidase (HRP)-conjugated secondary antibodies at RT for 2 h. After washing, the blots were developed using Immobilon ECL Ultra Western HRP Substrate (#WBULS0500, Millipore), and images were acquired with a Fusion SL gel imaging system (Vilber Lourmat, Eberhardzell, Germany). […]
# [5] = system: JNK1/2 phosphorylation; test: Western blot, basal JNK1/2 phosphorylation in BCR–ABL1 cells; assay type: cell-based, mouse; details: 10 µM, no CXCL12, 5 min; n = 3
# Protocol: BCR–ABL1 cells were collected as 5 × 10^6 cells/500 μL complete media and treated either with DMSO or different inhibitors in the absence and presence of 100 ng/mL mouse CXCL12 for 5, 15, and 30 min at 37 °C. Cells were then immediately transferred onto ice to stop the reaction and washed with ice-cold PBS. […] For each treatment, 15 μL of cell extract was mixed with 5 μL of 4X Laemmli buffer (reducing), boiled at 95 °C for 10 min, and run on 10% SDS-PAGE. Gels were wet-transferred to PVDF membranes (Millipore, Burlington, MA, USA) and stained with 0.1% ponceau-S solution to check for efficient blotting. The membranes were blocked with 3% BSA solution and incubated with primary antibodies at 4 °C overnight. The next day, primary antibodies were washed, and membranes were probed with horseradish peroxidase (HRP)-conjugated secondary antibodies at RT for 2 h. After washing, the blots were developed using Immobilon ECL Ultra Western HRP Substrate (#WBULS0500, Millipore), and images were acquired with a Fusion SL gel imaging system (Vilber Lourmat, Eberhardzell, Germany).
# [6] = system: CXCR4; test: CXCL12-driven calcium flux in SupB15 cells; assay type: cell-based; details: 1 µM, 10 min pre-treatment, 100 ng/mL human CXCL12; n = 3
# Protocol: Ca^2+ signaling was analyzed as described previously. Briefly, SupB15 and 697 cells were collected at 1 × 10^6 cells/treatment and loaded with calcium-sensitive dye Indo-1 AM (#I1223, Invitrogen) and 0.5 mg/mL of pluronic F-127 (#P3000MP, Invitrogen) in their respective media supplemented with 1% FBS at 37 °C for 45 min. Cells were then washed and treated with the inhibitors for 10 min at 37 °C. Baseline signal for calcium was measured for 30 s via flow cytometry, followed by stimulation with 100 ng/mL human CXCL12. The area under the curve (AUC) of each calcium flux plot was determined using FlowJo. The AUC of the water control (solvent for CXCL12) was subtracted from each treatment to obtain the correct estimation of the calcium signal upon CXCL12 stimulation.
# [7] = system: 697 cells; test: Flow cytometric cell survival analysis, 697; assay type: cell-based, human; details: 10 µM; n = 3
# Protocol: Cells treated with either solvent control DMSO or different concentrations of inhibitors for different time points were collected and washed with ice-cold PBS. Cells were then stained with efluor 450-labeled fixable viability dye (FVD, #65-0863-14, eBioscience, San Diego, CA, USA) at 1:1000 dilution at 4 °C or using 50 μg/mL propidium iodide (PI, #P3566, Thermo Fisher, Dreieich, Germany) solution at RT for 15 min in the dark. After washing, labeled cells were resuspended in 100 μL of PBS and acquired using LSR-Fortessa (BD Bioscience, Heidelberg, Germany). FACS data were analyzed with FlowJo software version 10.0.
# [8] = system: 697 cells; test: Real-time cell growth by IncuCyte, 697; assay type: cell-based, human; details: 10 µM, 96 h; n = 3
# Protocol: as §1
# [9] = system: Imatinib-resistant Ph+ ALL primary xenograft cells; test: Real-time cell growth by IncuCyte, primary Ph+ ALL xenograft cells; assay type: cell-based, human; details: 10 µM, 6 days; n = 2
# Protocol: Animals showing clinical symptoms of leukemia or with >75% leukemic blasts in blood were sacrificed, and total splenic cells were isolated and frozen for future use.
# For Ph^+ ALL cells isolated from the xenografted NSG mice, frozen cells were thawed and cultured in MEM-alpha (Gibco) media supplemented with 20% FBS and 100 units/mL of penicillin/streptomycin for 5–16 h in a 5% CO2 incubator. Next, the cells were overlaid on 10 mL Ficoll-Paque™PLUS (#17144003, Cytiva, Freiburg, Germany) in 50 mL tubes and centrifuged at 400 g without break for 10 min at RT. The cells were collected from the interface of Ficoll and media and washed once with PBS. Viable cells were counted and plated into previously coated 48-well plates at 4.25 × 10^5 cells/well in 250 μL of media with or without the inhibitors. Scanning was conducted every two hours for total of 6 days in phase contrast mode and analyzed using the cell-by-cell analysis module of IncuCyte software version 2020B (Essen Bioscience).
# [10] = system: TKO-EV cells (untransformed mouse BM pro-B cells); test: Real-time cell growth analysis by IncuCyte, untransformed TKO-EV cells; details: 1, 5 and 10 µM, 96 h; n = 3
# Protocol: A flat-bottom 96-well plate was coated with 0.01% poly-L ornithine (#P4957, Sigma-Aldrich, Hamburg, Germany) for 1 h at room temperature (RT). BCR–ABL1, SupB15, and 697 cells were counted as 0.5 × 10^5 cells/well, while TKO-BCR–ABL1 and TKO-EV cells as 1 × 10^5 cells/well, which were labeled with IncuCyte Cytotox Red dye (#4632, Sartorius, Ulm, Germany) as per the manufacturer’s protocol. The cells were plated in 100 μL complete medium. […] Plate was prewarmed at 37 °C for 30 min prior to placing in the IncuCyte chamber. Scanning was conducted every two hours for total of 4 days. Images were acquired using a 20X objective in phase contrast and fluorescence mode at 4 images/well and analyzed using the cell-by-cell analysis module of IncuCyte software version 2020B (Essen Bioscience, Ann Arbor, MI, USA).
Molecule,Proliferation of BCR–ABL1 cells (dye dilution) vs DMSO [1],Concentration effective in inhibiting antibody binding to CXCR4 [2],Anti-CXCR4 antibody binding to CXCR4 [2],Growth of normal WT mouse BM-derived B cells [3],CXCL12-induced ERK1/2 T202/Y204 phosphorylation [4],Basal JNK phosphorylation vs DMSO [5],"CXCL12-induced calcium flux, SupB15 [6]",697 cell survival vs DMSO [7],697 cell growth vs DMSO [8],Growth of Ph+ ALL xenograft cells vs DMSO [9],Survival/growth of TKO-EV cells [10]
"ILRWSRK * (Pal)-NH2 [JM#170, lipid-conjugated truncated version of EPI-X4, CXCR4 antagonist]",no effect on proliferation,~ 10 nM,significantly inhibited the antibody binding,remained inactive against the WT B cells,this elevation was blocked,transiently upregulated basal JNK phosphorylation,completely blocked the calcium flux,no effect on the survival of these cells,no effect on the 697 cells,significant growth inhibitory effect,
"c1cc(CN2CCCNCCNCCCNCC2)ccc1CN1CCCNCCNCCCNCC1 [AMD3100, AMD3100 octahydrochloride hydrate, reference compound]",significantly reduced the proliferation,~ 1 μM,significantly inhibited the antibody binding,,this elevation was blocked,such upregulation was not observed,completely blocked the calcium flux,,,,neither JM#170 nor AMD3100 had any effect
